Source: patent US11414416B1, “Compounds and uses thereof” (Foghorn Therapeutics Inc., priority 2019, dated 2022)

Legend:
[1] = test system: synovial sarcoma cell lines (SYO1, Yamato, HS-SY-II, and ASKA); assay: Growth of synovial sarcoma cell lines (confluency, crystal violet, colonies; Example 3); type: cell-based; details: FIGS. 5-7, 1 μM in crystal violet assay
Protocol: (§1) Cells were treated with DMSO or the BRD9 degrader, Compound 1, at indicated concentrations, and proliferation was monitored from day 7 to day 14 by measuring confluency over time using an IncuCyte live cell analysis system (FIG. 5). Growth medium and compounds were refreshed every 3-4 days.
(§2) Cells were seeded into 12-well plates and treated with DMSO, 1 μM BRD9 inhibitor, Compound 2 (also known as BI-7273, see Martin et al, J Med Chem. 59(10):4462-4475 (2016); see structure of Compound 2 below), or 1 μM BRD9 degrader, Compound 1.
(§3) The number of cells was optimized for each cell line. Growth medium and compounds were refreshed every 3-5 days. SYO1, Yamato, A549, 293T and HS-SY-II cells were fixed and stained at day 11. ASKA cells were fixed and stained at day 23. Staining was done by incubation with crystal violet solution (0.5 g Crystal Violet, 27 ml 37% Formaldehyde, 100 mL 10×PBS, 10 mL Methanol, 863 dH20 to 1 L) for 30 min followed by 3× washes with water and drying the plates for at least 24 h at room temperature. Subsequently plates were scanned on an Odyssey CLx Imaging system (FIG. 6).
(§4) Cells were seeded into 96-well ultra low cluster plate (Costar, #7007) in 200 μL complete media and treated at day 2 with DMSO, Staurosporin, or BRD9 degarder, Compound 1, at indicated doses (FIG. 7). Media and compounds were changed every 5 d and cell colonies were imaged at day 14.

[2] = test system: non-synovial control cancer cell lines (293T, A549, G401); assay: Growth of non-synovial control cancer cell lines (Example 3); type: cell-based; details: FIGS. 5-7
Protocol: as §1, §2, §3, §4

[3] = test system: synovial sarcoma cell lines (SYO1, HS-SY-II, and ASKA); assay: Growth of synovial sarcoma cell lines, crystal violet day 14 (Example 4); type: cell-based; details: SYO1, HS-SY-II, ASKA; treated daily, day 14, FIG. 8
Protocol: (§5) Procedure: Cells were seeded into 6-well or 12-well plates and were treated daily with a BRD9 degrader (Compound 1), a bromo-domain BRD9 binder (Compound 2), E3 ligase binder (lenalidomide), DMSO, or staurosporin (positive control for cell killing), at indicated concentrations. The number of cells was optimized for each cell line. Growth media was refreshed every 5 days. By day 14, medium was removed, cells were washed with PBS, and stained using 500 μL of 0.005% (w/v) crystal violet solution in 25% (v/v) methanol for at least 1 hour at room temperature. Subsequently plates were scanned on an Odyssey CLx Imaging system.

[4] = test system: non-synovial control cancer cell lines (RD, HCT116, and Calu6); assay: Growth of non-synovial control cancer cell lines, crystal violet day 14 (Example 4); type: cell-based; details: treated daily, day 14, FIG. 9
Protocol: as §5

BRD9 bromodomain = BRD9 bromodomain (Homo sapiens (Human), UniProt Q9H8M2); assay: BRD9 bromodomain TR-FRET competition binding assay; details: Table 4; competition with biotinylated ligand, 3 nM Flag-BRD9, 90 minutes
BRD9 bromodomain, sequence (Q9H8M2 133-239): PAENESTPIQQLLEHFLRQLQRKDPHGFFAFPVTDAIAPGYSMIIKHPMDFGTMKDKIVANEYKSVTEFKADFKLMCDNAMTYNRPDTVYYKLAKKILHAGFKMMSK
In short: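 TEV-cleaved Flag-BRD9 (P133-K239, 3 nM) competed against 3.75 nM biotinylated ligand, with 7.5 nM APC-streptavidin and 0.2 nM Eu-W1024 anti-FLAG, in HEPES pH 7.4, NaCl, TCEP, Tween-20, BSA. Compounds were serially diluted 3-fold; after 90 min at room temperature the 665/615 nm emission ratio was read.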

[5] = biological target: Nanoluciferase-BRD9 fusion protein (Homo sapiens (Human), UniProt Q9H8M2); assay: SYO1 BRD9 NanoLuc degradation assay; type: cell-based; details: Table 5A, SYO-1 cells expressing 3×FLAG-NLuc-BRD9, 6 hours; for DC50: read-out: SYO1 BRD9-NanoLuc degradation IC50
Nanoluciferase-BRD9 fusion protein, sequence (Q9H8M2 whole entry, the tested form may be a part): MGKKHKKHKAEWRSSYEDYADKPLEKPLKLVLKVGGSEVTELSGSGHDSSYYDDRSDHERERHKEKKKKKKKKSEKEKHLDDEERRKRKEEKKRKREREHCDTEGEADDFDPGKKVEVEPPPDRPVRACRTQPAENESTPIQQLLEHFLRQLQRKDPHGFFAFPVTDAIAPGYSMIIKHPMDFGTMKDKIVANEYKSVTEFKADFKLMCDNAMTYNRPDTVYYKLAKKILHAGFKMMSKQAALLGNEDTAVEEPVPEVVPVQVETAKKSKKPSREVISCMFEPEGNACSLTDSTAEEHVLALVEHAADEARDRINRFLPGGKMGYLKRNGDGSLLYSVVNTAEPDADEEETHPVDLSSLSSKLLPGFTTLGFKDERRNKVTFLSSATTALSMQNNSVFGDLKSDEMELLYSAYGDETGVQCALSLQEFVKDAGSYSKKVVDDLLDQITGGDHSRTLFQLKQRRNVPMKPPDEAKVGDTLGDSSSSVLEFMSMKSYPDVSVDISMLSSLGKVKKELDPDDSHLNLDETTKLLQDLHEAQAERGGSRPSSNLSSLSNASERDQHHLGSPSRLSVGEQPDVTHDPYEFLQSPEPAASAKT
In short: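 Degradation was read as loss of nanoluciferase signal (Nano-Glo) after 6 h compound exposure in a stable SYO-1 line carrying 3×FLAG-NLuc-BRD9 (8000 cells/well). Normalised between DMSO (high) and a 1 μM known BRD9 degrader (low).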

SMILES | IC50 (BRD9 bromodomain) [nM] | IC50 [5] [nM] | DC50 [5] [nM] | further results
COc1cc(-c2cn(C)c(=O)c3cnccc23)cc(OC)c1CN(C)C [Compound 2] |  |  |  | inhibition of growth of synovial sarcoma cell lines [1]: inhibition of the growth of the cells; inhibition of growth of non-synovial control cancer cell lines [2]: does not result in inhibition of the growth; inhibition of growth of synovial sarcoma cell lines [3]: inhibition of the growth of the cells; inhibition of growth of non-synovial control cancer cell lines [4]: did not result in inhibition of the growth
COc1cc(-c2cn(C)c(=O)c3cnccc23)cc(OC)c1CN1CCC(COC2CCN(C(=O)CCOCCOc3ccc4c(c3)C(=O)N(C3CCC(=O)NC3=O)C4=O)C2)CC1 (stereo not shown) [Compound D124] | < 10 | < 10 |  | 
COc1cc(-c2cn(C)c(=O)c3cnccc23)cc(OC)c1CN1CCC2(C[C@@H]2NC(=O)CCOCCOc2ccc3c(c2)C(=O)N(C2CCC(=O)NC2=O)C3=O)C1 (stereo partly shown) [Compound D125] | < 10 |  | 10 to 100 | 
COc1cc(-c2cn(C)c(=O)c3cnccc23)cc(OC)c1CN1CCC2(C[C@H]2NC(=O)CCOCCOc2ccc3c(c2)C(=O)N(C2CCC(=O)NC2=O)C3=O)C1 (stereo partly shown) [Compound D126] | 10 to 100 | 100 to 1000 |  | 
COc1cc(-c2cn(C)c(=O)c3cnccc23)cc(OC)c1CN1CCC12CCN(C(=O)CCOCCOc1ccc3c(c1)C(=O)N(C1CCC(=O)NC1=O)C3=O)C2 (stereo not shown) [Compound D127] | < 10 |  | 100 to 1000 | 
COc1cc(-c2cn(C)c(=O)c3cnccc23)cc(OC)c1CN1CC2C1CCN2C(=O)CCOCCOc1ccc2c(c1)C(=O)N(C1CCC(=O)NC1=O)C2=O (stereo not shown) [Compound D128] | 10 to 100 | < 10 |  | 
COc1cc(-c2cn(C)c(=O)c3cnccc23)cc(OC)c1CN1CCC(C2CCN(C(=O)CCOCCOc3ccc4c(c3)C(=O)N(C3CCC(=O)NC3=O)C4=O)C2)CC1 (stereo not shown) [Compound D129] | < 10 | < 10 |  | 
COc1cc(-c2cn(C)c(=O)c3cnccc23)cc(OC)c1CN1CCC(OC2CCN(C(=O)CCOCCOc3ccc4c(c3)C(=O)N(C3CCC(=O)NC3=O)C4=O)C2)CC1 (stereo not shown) [Compound D130] | < 10 | < 10 |  | 
COc1cc(-c2cn(C)c(=O)c3cnccc23)cc(OC)c1CN1CCC(OC2CCN(C(=O)CCOCCOc3ccc4c(c3)C(=O)N(C3CCC(=O)NC3=O)C4=O)CC2)CC1 (stereo not shown) [Compound D131] | < 10 | < 10 |  | 
COc1cc(-c2cn(C)c(=O)c3cnccc23)cc(OC)c1CN1CCCC(OCc2cn(CCCOc3ccc4c(c3)C(=O)N(C3CCC(=O)NC3=O)C4=O)nn2)C1 (stereo not shown) [Compound D151] | < 10 |  | 10 to 100 | 
COc1cc(-c2cn(C)c(=O)c3cnccc23)cc(OC)c1CN(C)CC1CC2(CCN(C(=O)CCOCCOc3cccc4c3C(=O)N(C3CCC(=O)NC3=O)C4=O)CC2)O1 (stereo not shown) [Compound D159] | < 10 |  | 10 to 100 | 
COc1cc(-c2cn(C)c(=O)c3cnccc23)cc(OC)c1CN(C)C1CC2CN(C(=O)CCOCCOc3cccc4c3C(=O)N(C3CCC(=O)NC3=O)C4=O)CC2C1 (stereo not shown) [Compound D160] | < 10 |  | 10 to 100 | 
COc1cc(-c2cn(C)c(=O)c3cnccc23)cc(OC)c1CN(C)C1CCC2CN(C(=O)CCOCCOc3cccc4c3C(=O)N(C3CCC(=O)NC3=O)C4=O)CC21 (stereo not shown) [Compound D161] | < 10 |  | 10 to 100 | 
COc1cc(-c2cn(C)c(=O)c3cnccc23)cc(OC)c1CN(C)C1CC2CC1CN2C(=O)CCOCCOc1cccc2c1C(=O)N(C1CCC(=O)NC1=O)C2=O (stereo not shown) [Compound D162] | 10 to 100 | 10 to 100 |  | 
COc1cc(-c2cn(C)c(=O)c3cnccc23)cc(OC)c1CN(C)CC1CC12CCN(C(=O)CCOCCOc1cccc3c1C(=O)N(C1CCC(=O)NC1=O)C3=O)CC2 (stereo not shown) [Compound D163] | < 10 |  | 10 to 100 | 
COc1cc(-c2cn(C)c(=O)c3cnccc23)cc(OC)c1CN(C)CC1CC2(C1)CN(C(=O)CCOCCOc1cccc3c1C(=O)N(C1CCC(=O)NC1=O)C3=O)C2 (stereo not shown) [Compound D164] | < 10 |  | 10 to 100 | 
COc1cc(-c2cn(C)c(=O)c3cnccc23)cc(OC)c1CN(C)CC1CC2(CCN(C(=O)CCOCCOc3cccc4c3C(=O)N(C3CCC(=O)NC3=O)C4=O)CC2)C1 (stereo not shown) [Compound D165] | 10 to 100 | 10 to 100 |  | 
COc1cc(-c2cn(C)c(=O)c3cnccc23)cc(OC)c1CN(C)CC1CC2CN(C(=O)CCOCCOc3cccc4c3C(=O)N(C3CCC(=O)NC3=O)C4=O)C[C@@H]2C1 (stereo partly shown) [Compound D166] | < 10 |  | 10 to 100 | 
COc1cc(-c2cn(C)c(=O)c3cnccc23)cc(OC)c1CN(C)CC1CC2(CCN(C(=O)CCOCCOc3ccc4c(c3)C(=O)N(C3CCC(=O)NC3=O)C4=O)CC2)O1 (stereo not shown) [Compound D167] | < 10 | < 10 |  | 
COc1cc(-c2cn(C)c(=O)c3cnccc23)cc(OC)c1CN(C)C1CC2CN(C(=O)CCOCCOc3ccc4c(c3)C(=O)N(C3CCC(=O)NC3=O)C4=O)CC2C1 (stereo not shown) [Compound D169] | < 10 |  | 10 to 100 | 
COc1cc(-c2cn(C)c(=O)c3cnccc23)cc(OC)c1CN(C)C1CCC2CN(C(=O)CCOCCOc3ccc4c(c3)C(=O)N(C3CCC(=O)NC3=O)C4=O)CC21 (stereo not shown) [Compound D170] | 10 to 100 | < 10 |  | 
COc1cc(-c2cn(C)c(=O)c3cnccc23)cc(OC)c1CN(C)C1CC2CC1CN2C(=O)CCOCCOc1ccc2c(c1)C(=O)N(C1CCC(=O)NC1=O)C2=O (stereo not shown) [Compound D171] | 10 to 100 | < 10 |  | 
COc1cc(-c2cn(C)c(=O)c3cnccc23)cc(OC)c1CN(C)CC1CC12CCN(C(=O)CCOCCOc1ccc3c(c1)C(=O)N(C1CCC(=O)NC1=O)C3=O)CC2 (stereo not shown) [Compound D172] | < 10 |  | 10 to 100 | 
COc1cc(-c2cn(C)c(=O)c3cnccc23)cc(OC)c1CN(C)C1CCC12CCN(C(=O)CCOCCOc1ccc3c(c1)C(=O)N(C1CCC(=O)NC1=O)C3=O)CC2 (stereo not shown) [Compound D173] | 10 to 100 | < 10 |  | 
COc1cc(-c2cn(C)c(=O)c3cnccc23)cc(OC)c1CN(C)CC1CC2(C1)CN(C(=O)CCOCCOc1ccc3c(c1)C(=O)N(C1CCC(=O)NC1=O)C3=O)C2 (stereo not shown) [Compound D174] | 10 to 100 | 100 to 1000 |  | 
COc1cc(-c2cn(C)c(=O)c3cnccc23)cc(OC)c1CN(C)CC1CC2(CCN(C(=O)CCOCCOc3ccc4c(c3)C(=O)N(C3CCC(=O)NC3=O)C4=O)CC2)C1 (stereo not shown) [Compound D175] | 10 to 100 | 10 to 100 |  | 
COc1cc(-c2cn(C)c(=O)c3cnccc23)cc(OC)c1CN(C)CC1CC2CN(C(=O)CCOCCOc3ccc4c(c3)C(=O)N(C3CCC(=O)NC3=O)C4=O)C[C@@H]2C1 (stereo partly shown) [Compound D176] | < 10 | < 10 |  | 
COc1cc(-c2cn(C)c(=O)c3cnccc23)cc(OC)c1CN(C)CC1CC2CN(C(=O)CCOCCOc3cccc4c3C(=O)N(C3CCC(=O)NC3=O)C4=O)C[C@H]2C1 (stereo partly shown) [Compound D177] | < 10 |  | 10 to 100 | 
